What all share (assay type): cell-based
The test system of assay [1] is recombinant Escherichia coli KO11. The experiment in a line: Batch fermentation of E. coli KO11 in 1% CSL medium and glucose with nutrient additives: ethanol production and cell growth. The conditions noted are these: 1% CSL+glucose; additive 2 g/L unless indicated.
The test system is the same in assay [2]. Description: Batch fermentation of E. coli KO11 in Luria broth and xylose with nutrient additives: ethanol production and cell growth. The conditions noted are these: LB+xylose; additive 2 g/L unless indicated. The procedure:
Two types of media were tested: 1% CSL and Luria broth (LB). Each contained 97 g of either xylose or glucose per liter. Luria Broth consists of, per liter: 10 g Difco® Tryptone, 5 g Difco® Yeast Extract and 5 g NaCl. The 1% CSL medium consists of Corn Steep Liquor (1% w/v) plus mineral salts (mineral salts per liter: 1 g of KH2PO4. 0.5 g of K2HPO4, 3.1 g of (NH4)2SO4, 0.4 g of MgCl2·6H2), and 20 mg FeCl3·6H2O).
Luria Broth was prepared by autoclaving a 2× nutrient stock containing, per liter: 20 g Difco® Tryptone, 10 g Difo® Yeast Extract, and 10 g NaCl. Sugars (xylose or glucose) were autoclaved separately. A 1% CSL medium was prepared as follows: Commercial Corn Steep Liquor (CSL; 50% dry weight/50% water) was diluted with tap water to make a 20X stock containing 100 g dry weight of Corn Steep Liquor/L and was adjusted to pH 7.2 with NaOH (50%). After sterilization by autoclaving, the 20X CSL stock was clarified by centrifugation at 5000×g for 10 minutes. Magnesium was added as a 100× stock solution (40 g/L MgCl2·6H2O). Iron was added as a 1000× stock solution made by dissolving 20 g FeCl3·6H2O in 175 mL of HCl and adjusting to 1 L with sterile water. Nitrogen, sulfur and phosphorus were added using a 20× stock solution containing the following (per liter): 20 g of KH2PO4, 10 g of K2HPO4 and 62 g of (NH4)2SO4. Stock solutions containing minerals were sterilized separately by autoclaving. Final media was prepared by adding 750 mL of water to 1 L bottle containing 100 g of xylose or glucose.
Inocula were grown in same media used for fermentation and were prepared as follows. Three colonies from a fresh plate were used to inoculate seed cultures: 250-mL flask containing 100 mL medium. These cultures were grown with agitation (120 rpm) for 12-16 hours at 35° C. to a final OD550nm of approximately 2.0-2.5. Cells were harvested by centrifugation at 5000×g for 5 minutes, and resuspended in fresh media to an OD550nm of 0.1. The resulting suspension was distributed into 500-mL beakers containing 345 ml each of fermentation medium. Acetaldehyde was added as indicated. Batch fermentations (35° C., 100 rpm) were maintained at pH 6.5 by the automatic addition of 2N KOH. Cell mass, ethanol, and base addition (2N KOH) were recorded during 96 hours of incubation.
Equivalent amounts of distilled water were added instead of the acetaldehyde in control experiments.
Additives (e.g., as listed in Table 1) were dissolved in 5 mL di-H2O. Solutions with pH lower than 5 were neutralized to pH 6.5 with 2N KOH. Nutritional supplements were then filter-sterilized (0.45 μm filter disk) directly into the fermentation vessel containing the culture. The final concentration of all additives in the culture medium was 2 g/L unless otherwise indicated.
Cell mass was estimated by measuring OD550nm using Baush & Lomb® Spectronic 70 spectrophotometer. […] Ethanol was measured by gas chromatography using a Varian® 3400 CX gas chromatograph with 1-propanol as an internal standard.
Tables 1, 3, and 5 show time to completion of fermentation, ethanol production, and volumetric productivity of the fermentation for all concentrations of the compound and the control. Maximum ethanol production is shown in grams/liter (g/L). The ethanol yield is shown in grams of ethanol/grams of added sugar. Maximum volumetric productivity is shown in grams ethanol/(liter)(hour). The average productivity is calculated form the start of fermentation to the completion of fermentation is grams ethanol/(liter)hour).
Tables 2, 4, and 6 show the initial growth of the cells (OD taken after the first 24 hours of fermentation) and the maximum cell density (the time which culture reaches the maximum OD value).
Acetaldehyde was added to the fermentation medium at five different concentrations and time points. […] Where two additions are indicated, the first volume was added at the start of fermentation and the second was added after 8 hours of fermentation.

For assay [3] the test system is unchanged. The experiment in a line: Batch fermentation of E. coli KO11 in 1% CSL medium and xylose with nutrient additives: ethanol production and cell growth. The conditions noted are these: 1% CSL+xylose; additive 2 g/L unless indicated.

The structures appear in SMILES notation.

With `O=C(O)CCC(=O)C(=O)O` [a-KG, α-ketoglutarate], in assay [1], the “Ethanol Production Maximum” value was 40.33 g/L, the “Ethanol Production Maximum % Control” value is recorded as 109.03%, the Ethanol yield is 0.415 grams of ethanol/grams of added sugar and the “Initial Growth (OD @ 24 h) % Control” value is recorded as 123.05%. In assay [1], the “Initial Growth (OD @ 24 h) OD” value stood at 3.29 OD and the Time to completion is given as 72 h. In addition, in assay [2], the “Ethanol Production Maximum” value was found to be 42.47 g/L, the Ethanol yield is listed as 0.437 grams of ethanol/grams of added sugar, the “Initial Growth (OD at 24 h) % Control” value came to 102.79% and the “Initial Growth (OD at 24 h) OD” value was found to be 10.27 OD. Further, in assay [2], the Time to completion is listed as 48 h. In assay [3], the “Ethanol Production Maximum” value stood at 42.32 g/L, the “Ethanol Production Maximum % Control” value stood at 140.70%, the Ethanol yield is on record as 0.436 grams of ethanol/grams of added sugar and the “Initial Growth (OD @ 24 h) % Control” value is on record as 173.77%. Besides, in assay [3], the “Initial Growth (OD @ 24 h) OD” value came out at 3.55 OD and the Time to completion stood at 72 h.

For the origin of these results see patent US20020137154A1, “Methods for improving cell growth and alcohol production during fermentation” (priority 2000, published 2002).
